Source: patent publication US20250161281A1, “EMOPAMIL-BINDING PROTEIN INHIBITORS AND USES THEREOF” (BIOGEN MA INC., priority 2022, published 2025)

target: T1, EBP (Homo sapiens, UniProt Q15125); experiment: EBP Functional Assay (EBP immunoaffinity LC-MS assay); format: biochemical; details: HEK293T cells as source of EBP enzyme; 30 min with inhibitor, then zymosterol-d5, 37° C. for 4 h; percent conversion by LC-APCI MRM MS
T1 construct: HEK293T cells were utilized as the source of EBP enzyme; endogenous in cells; host or cells: HEK293T
T1 sequence (Q15125 whole entry): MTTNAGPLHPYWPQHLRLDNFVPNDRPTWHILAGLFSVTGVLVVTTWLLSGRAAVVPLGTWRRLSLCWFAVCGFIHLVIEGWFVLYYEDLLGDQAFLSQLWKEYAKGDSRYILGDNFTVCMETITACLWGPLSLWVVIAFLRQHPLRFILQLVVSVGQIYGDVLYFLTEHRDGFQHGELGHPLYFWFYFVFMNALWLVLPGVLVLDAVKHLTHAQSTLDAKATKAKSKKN
Experimental: The EBP immunoaffinity (IA) LC-MS assay measures the potency of small molecule inhibitors of EBP by quantifying their concentration-dependent changes in the enzyme's substrate and product using liquid chromatography atmospheric pressure chemical ionization multiple reaction monitoring mass spectrometry (LC-APCI MRM MS). HEK293T cells were utilized as the source of EBP enzyme. The enzyme was incubated with the small molecule inhibitors at variable concentrations for 30 min. Deuterated form of EBP substrate, zymosterol-d5 (Avanti Polar Lipids, Cat #700068P-1 mg), was then added and the plate was incubated at 37° C. for 4 h. Finally, the sterol isomers were extracted and injected to LC-APCI MRM MS. MRM transition used for the quantification for both zymosterol and dihydrolathosterol (substrate and product of EBP enzymatic reaction, respectively) is 372.3-203.2, CE 30 and DP 80 in positive ion mode. Percent conversion of the zymosterol-d5 to dehydrolathosterol-d5 was used to derive IC50 curves. Tasin-1 (1′-[(4-Methoxyphenyl)sulfonyl]-4-methyl-1,4′-bipiperidine, CAS 792927-06-1) was used as the reference small molecule inhibitor. Percent conversion versus the compound concentration data were fit to the following 4-parameter logistic model to generate IC50 curves: […]

Row | Structure (SMILES) | IC50
1 | CC1(CNC2C[C@H]3CC[C@@H](C2)N3S(=O)(=O)c2ccc(OC(F)F)cc2)COC1 (mixture of isomers) [Example 15, 8-((4-(Difluoromethoxy)phenyl)sulfonyl)-N-((3-methyloxetan-3-yl)methyl)-8-azabicyclo[3.2.1]octan-3-amine] | < 50 nM
2 | O=S(=O)(c1ccc(OC(F)F)cc1)N1C2CCC1CC(NC[C@H]1C[C@H]1CO)C2 (mixture of isomers) [Example 56, rac-((1R,2S)-2-(((8-((4-(Difluoromethoxy)phenyl)sulfonyl)-8-azabicyclo[3.2.1]octan-3-yl)amino)methyl)cyclopropyl)methanol] | 150 to 2000 nM
3 | CC(O)CCN[C@H]1C[C@H]2CC[C@@H](C1)N2S(=O)(=O)c1ccc(OC(F)F)cc1 (mixture of isomers) [Example 59, rac-4-(((1R,3r,5S)-8-((4-(difluoromethoxy)phenyl)sulfonyl)-8-azabicyclo[3.2.1]octan-3-yl)amino)butan-2-ol] | 50 to 150 nM
4 | CC(O)CCN[C@@H]1C[C@H]2CC[C@@H](C1)N2S(=O)(=O)c1ccc(OC(F)F)cc1 (mixture of isomers) [Example 60, rac-4-(((1R,3s,5S)-8-((4-(difluoromethoxy)phenyl)sulfonyl)-8-azabicyclo[3.2.1]octan-3-yl)amino)butan-2-ol] | 150 to 2000 nM
5 | Cc1nc(C(F)(F)F)ccc1S(=O)(=O)N1[C@@H]2CC[C@H]1C[C@H](N1CC3(COC3)C1)C2 (single isomer, unassigned) [Example 22] | < 50 nM
6 | Cc1nc(C(F)(F)F)ccc1S(=O)(=O)N1[C@@H]2CC[C@H]1C[C@@H](N1CC3(COC3)C1)C2 (single isomer, unassigned) [Example 23] | < 50 nM
7 | Cc1nc(C(F)(F)F)ccc1S(=O)(=O)N1[C@@H]2CC[C@H]1C[C@H](NCC1CCOCC1)C2 (single isomer, unassigned) [Example 24] | < 50 nM
8 | Cc1nc(C(F)(F)F)ccc1S(=O)(=O)N1[C@@H]2CC[C@H]1C[C@@H](NCC1CCOCC1)C2 (single isomer, unassigned) [Example 25] | < 50 nM
9 | Cc1nc(C(F)(F)F)ccc1S(=O)(=O)N1[C@@H]2CC[C@H]1C[C@H](NCC1(C)COC1)C2 (single isomer, unassigned) [Example 26] | < 50 nM
10 | Cc1nc(C(F)(F)F)ccc1S(=O)(=O)N1[C@@H]2CC[C@H]1C[C@@H](NCC1(C)COC1)C2 (single isomer, unassigned) [Example 27] | < 50 nM
11 | O=S(=O)(c1ccc(OC(F)F)cc1)N1C2CCC1CC(NCC1CC(O)C1)C2 (single isomer, unassigned) [Example 61] | 50 to 150 nM
12 | O=S(=O)(c1ccc(OC(F)F)cc1)N1C2CCC1CC(NCC1CC(O)C1)C2 (single isomer, unassigned) [Example 62] | 50 to 150 nM
13 | O=S(=O)(c1ccc(OC(F)F)cc1)N1[C@@H]2CC[C@H]1C[C@H](NC[C@H]1C[C@@H](O)C1)C2 (single isomer, unassigned) [Example 63] | 150 to 2000 nM
14 | O=S(=O)(c1ccc(OC(F)F)cc1)N1[C@@H]2CC[C@H]1C[C@@H](NC[C@H]1C[C@@H](O)C1)C2 (single isomer, unassigned) [Example 64] | 50 to 150 nM
15 | Cc1nc(C(F)(F)F)ccc1S(=O)(=O)N1[C@@H]2CC[C@H]1C[C@H](NC1CC3(COC3)C1)C2 (single isomer, unassigned) [Example 68] | < 50 nM
16 | Cc1nc(C(F)(F)F)ccc1S(=O)(=O)N1[C@@H]2CC[C@H]1C[C@@H](NC1CC3(COC3)C1)C2 (single isomer, unassigned) [Example 69] | 50 to 150 nM
17 | O=S(=O)(c1ccc(OC(F)F)cc1)N1[C@@H]2CC[C@H]1C[C@@H](NCC1(F)COC1)C2 (single isomer, unassigned) [Example 71] | 150 to 2000 nM
18 | Cc1nonc1S(=O)(=O)N1[C@@H]2CC[C@H]1C[C@@H](N1CCC(C)CC1)C2 [Example 1, 3-Methyl-4-(((1R,3r,5S)-3-(4-methylpiperidin-1-yl)-8-azabicyclo[3.2.1]octan-8-yl)sulfonyl)-1,2,5-oxadiazole] | < 50 nM

Row | Structure (SMILES) | IC50
19 | CC1CCN([C@H]2C[C@H]3CC[C@@H](C2)N3S(=O)(=O)c2cnc(C3CCOCC3)o2)CC1 [Example 2, 5-(((1R,3r,5S)-3-(4-Methylpiperidin-1-yl)-8-azabicyclo[3.2.1]octan-8-yl)sulfonyl)-2-(tetrahydro-2H-pyran-4-yl)oxazole] | < 50 nM
20 | COc1nc(C)ccc1S(=O)(=O)N1[C@@H]2CC[C@H]1C[C@H](N1CCC(C)CC1)C2 [Example 3, (1R,3s,5S)-8-((2-Methoxy-6-methylpyridin-3-yl)sulfonyl)-3-(4-methylpiperidin-1-yl)-8-azabicyclo[3.2.1]octane] | < 50 nM
21 | COCn1ncc(Cl)c1S(=O)(=O)N1[C@@H]2CC[C@H]1C[C@H](N1CCC(C)CC1)C2 [Example 4, (1R,3s,5S)-8-((4-Chloro-1-(methoxymethyl)-1H-pyrazol-5-yl)sulfonyl)-3-(4-methylpiperidin-1-yl)-8-azabicyclo[3.2.1]octane] | < 50 nM
22 | CC1CCN([C@@H]2C[C@H]3CC[C@@H](C2)N3S(=O)(=O)c2ccc3c(c2)CC(C)(C)C(=O)N3)CC1 [Example 5, 3,3-Dimethyl-6-(((1R,3s,5S)-3-(4-methylpiperidin-1-yl)-8-azabicyclo[3.2.1]octan-8-yl)sulfonyl)-3,4-dihydroquinolin-2(1H)-one] | < 50 nM
23 | CC1CCN([C@@H]2C[C@H]3CC[C@@H](C2)N3S(=O)(=O)c2cnc(C3CCOCC3)o2)CC1 [Example 6, 5-(((1R,3s,5S)-3-(4-Methylpiperidin-1-yl)-8-azabicyclo[3.2.1]octan-8-yl)sulfonyl)-2-(tetrahydro-2H-pyran-4-yl)oxazole] | < 50 nM
24 | CC1CCN([C@@H]2C[C@H]3CC[C@@H](C2)N3S(=O)(=O)c2ccc3c(c2)COCC3)CC1 [Example 7, (1R,3s,5S)-8-(Isochroman-7-ylsulfonyl)-3-(4-methylpiperidin-1-yl)-8-azabicyclo[3.2.1]octane] | < 50 nM
25 | COCc1ccc(S(=O)(=O)N2[C@@H]3CC[C@H]2C[C@H](N2CCC(C)CC2)C3)o1 [Example 8, (1R,3s,5S)-8-((5-(Methoxymethyl)furan-2-yl)sulfonyl)-3-(4-methylpiperidin-1-yl)-8-azabicyclo[3.2.1]octane] | < 50 nM
26 | CC1CCN([C@@H]2C[C@H]3CC[C@@H](C2)N3S(=O)(=O)c2c3c(nn2C)CCOC3)CC1 [Example 9, 2-Methyl-3-(((1R,3s,5S)-3-(4-methylpiperidin-1-yl)-8-azabicyclo[3.2.1]octan-8-yl)sulfonyl)-2,4,6,7-tetrahydropyrano[4,3-c]pyrazole] | < 50 nM
27 | CC1CCN([C@@H]2C[C@H]3CC[C@@H](C2)N3S(=O)(=O)c2cc(-c3ccccc3)n[nH]2)CC1 [Example 10, (1R,3s,5S)-3-(4-Methylpiperidin-1-yl)-8-((3-phenyl-1H-pyrazol-5-yl)sulfonyl)-8-azabicyclo[3.2.1]octane] | < 50 nM
28 | CC1CCN([C@@H]2C[C@H]3CC[C@@H](C2)N3S(=O)(=O)c2cn3c(n2)CCCC3C)CC1 (stereo partly drawn) [Example 11, 5-Methyl-2-(((1R,3s,5S)-3-(4-methylpiperidin-1-yl)-8-azabicyclo[3.2.1]octan-8-yl)sulfonyl)-5,6,7,8-tetrahydroimidazo[1,2-a]pyridine] | < 50 nM
29 | Cc1cnn(C)c1S(=O)(=O)N1[C@@H]2CC[C@H]1C[C@H](N1CCC(C)CC1)C2 [Example 12, (1R,3s,5S)-8-((1,4-Dimethyl-1H-pyrazol-5-yl)sulfonyl)-3-(4-methylpiperidin-1-yl)-8-azabicyclo[3.2.1]octane] | < 50 nM
30 | CCn1nccc1S(=O)(=O)N1[C@@H]2CC[C@H]1C[C@H](N1CCC(C)CC1)C2 [Example 13, (1R,3s,5S)-8-((1-Ethyl-1H-pyrazol-5-yl)sulfonyl)-3-(4-methylpiperidin-1-yl)-8-azabicyclo[3.2.1]octane] | < 50 nM
31 | O=S(=O)(c1ccc(OC(F)F)cc1)N1C2CCC1CC(NC1CCC1O)C2 (centres unmarked) [Example 14, 2-((8-((4-(Difluoromethoxy)phenyl)sulfonyl)-8-azabicyclo[3.2.1]octan-3-yl)amino)cyclobutan-1-ol] | < 50 nM
32 | O=S(=O)(c1ccc(OC(F)F)cc1)N1C2CCC1CC(N1C3CCCC1CC(F)(F)C3)C2 (centres unmarked) [Example 16, 9-(8-((4-(Difluoromethoxy)phenyl)sulfonyl)-8-azabicyclo[3.2.1]octan-3-yl)-3,3-difluoro-9-azabicyclo[3.3.1]nonane] | < 50 nM
33 | O=S(=O)(c1ccc(OC(F)F)cc1)N1[C@@H]2CC[C@H]1C[C@@H](NCC1(O)CCOCC1)C2 [Example 17, 4-((((1R,3r,5S)-8-((4-(Difluoromethoxy)phenyl)sulfonyl)-8-azabicyclo[3.2.1]octan-3-yl)amino)methyl)tetrahydro-2H-pyran-4-ol] | < 50 nM
34 | O=S(=O)(c1ccc(OC(F)F)cc1)N1[C@@H]2CC[C@H]1C[C@H](NCC1(O)CCOCC1)C2 [Example 18, 4-((((1R,3s,5S)-8-((4-(Difluoromethoxy)phenyl)sulfonyl)-8-azabicyclo[3.2.1]octan-3-yl)amino)methyl)tetrahydro-2H-pyran-4-ol] | < 50 nM
35 | O=S(=O)(c1ccc(OC(F)F)cc1)N1C2CCC1CC(NCC1CCOCC1)C2 (centres unmarked) [Example 19, 8-((4-(Difluoromethoxy)phenyl)sulfonyl)-N-((tetrahydro-2H-pyran-4-yl)methyl)-8-azabicyclo[3.2.1]octan-3-amine] | < 50 nM
